Consider one molecule from patent publication US12433846B2, “Drug delivery system for treatment of cancer” (SINTEF TTO AS, priority 2019, dated 2025).

Assay [1] relates to PMCA-1 (peritoneal metastases from colorectal cancer). Kind of assay: In vivo treatment effect in orthotopic PMCA-1 peritoneal carcinomatosis model. The conditions noted are these: PMCA-1, 15 mg/kg.
Assay [2] relates to PMCA-3 (pseudomyxoma peritonei). The experiment in a line: In vivo treatment effect in orthotopic PMCA-3 peritoneal carcinomatosis model. The conditions noted are these: PMCA-3, 15 mg/kg.

The structures appear in SMILES notation. Several values for one entry are separate records, joined by “and”; a condition that tells them apart may be missing. Equal entries are not always repeated.

In the case of `CO[C@H]1C(=O)[C@]2(C)[C@@H](OC)C[C@H]3OC[C@@]3(OC(C)=O)[C@H]2[C@H](OC(=O)c2ccccc2)[C@]2(O)C[C@H](OC(=O)[C@H](O)[C@@H](NC(=O)OC(C)(C)C)c3ccccc3)C(C)=C1C2(C)C` [CBZ, cabazitaxel], the “mice still alive at day 90 after the injection” value in assay [1] (IP (FIG. 4)) is recorded as 4 out of 6; in assay [1] (IV (FIG. 4)), 3 out of 6. The “tumor growth (growth index) compared to vehicle treatment” value in assay [1] (intraperitoneal (FIG. 1)) is on record as “significantly inhibited tumor growth”; in assay [2] (intraperitoneal (FIG. 2)), “significantly reduced tumor growth”. The “mice cured (sacrificed on day 100 with no detectable tumor)” value was 3/6 and 3 out of 6 in assay [1] (intraperitoneal, day 100); “No animals were cured” in assay [2] (intraperitoneal, day 100). For the same molecule, the “mice still alive at day 60 after the injection” value in assay [2] (IP (FIG. 6)) is given as “none of the mice”. Moreover, the “mice alive at day 70 after the injection” value in assay [2] (IV (FIG. 6)) is recorded as “none of the mice”.
